Results published in PMC7562719, “Discovery of a CNS penetrant small molecule SMN2 splicing modulator with improved tolerability for spinal muscular atrophy” (Scientific Reports, 2020).
Marks after values point to notes of the source that are not given here.

Columns and labels:
FL-SMN2 mRNA = assay: qPCR of FL-SMN2 transcripts in SMA type II fibroblasts (GM03813); format: cell-based, human; settings: 24 h, 50% total FL-SMN2 mRNA increase, normalized to GAPDH, 95% CI in brackets
Protocol: (§1) GM03813 fibroblasts, GM24468-derived MNs, NRK-49F, MDCK, CV-1, or NCMDF cells were plated at a density of 0.5 or 1.5 × 10^4, 4 × 10^4, 5 × 10^3, 5 × 10^3, 8 × 10^3, or 6 × 10^3 cells/well on 96-well plates, respectively. After approximately 6 h, the medium was added with the same volume of culture medium containing each compound at the concentration of 0.06, 0.2, 0.6, 0.2, and 6 µM. The final concentration of DMSO was adjusted to 0.1% in culture condition.
(§2) All cells were treated with above compounds for 24 h and washed once with Dulbecco’s Phosphate-Buffered Saline without Ca and Mg [D-PBS (–)] (Wako or Nakarai Tesque). In case of using GM03813 or GM24468-derived MNs, cell lysis and reverse transcription were carried out using SuperPrep Cell Lysis & RT Kit for qPCR in accordance with manufacturer’s recommendations (Toyobo, Japan). qPCR was performed using THUNDERBIRD Probe qPCR Mix (Toyobo). The final concentrations of primers and probes were adjusted to 0.4 µM and 0.15 µM, respectively (Supplementary Table 1). Cycle conditions were as follows; 95 °C for 1 min; followed by 40 cycles of denaturation at 95 °C for 15 s; annealing and elongation at 60 °C for 1 min in the ViiA7 RT-PCR system (Thermo Fisher Scientific). The copy numbers of each target were normalized to those of GAPDH.

FOXM1b = assay: qPCR of FOXM1b/c variant in GM03813 fibroblasts; format: cell-based, human
Protocol: as §1, §2

FOXM1ΔC = assay: qPCR of FOXM1ΔC variant in GM03813 fibroblasts; format: cell-based, human; settings: 24 h, 300% total target mRNA increase, 95% CI in brackets
Protocol: as §1, §2

FOXM1a = assay: qPCR of FOXM1a variant in GM03813 fibroblasts; format: cell-based, human; settings: 24 h, 200% total target mRNA increase, 95% CI in brackets
Protocol: as §1, §2

FOXM1 = assay: qPCR of FOXM1 transcripts in cynomolgus monkey fibroblasts (NCMDF); format: cell-based; settings: 24 h
Protocol: as §1
In the instances of using NRK-49F, MDCK, CV-1 or NCMDF, cell lysis and reverse transcription were carried out using Custom Cells to CT Lysis Components (Ambion) and Cells-to-CT RT Components (Ambion), each in accordance with manufacturer’s recommendations. qPCR was conducted using TaqMan Fast Advanced Master Mix. The final concentrations of primers and probes were adjusted to 0.4 µM and 0.15 µM, respectively. Cycle conditions were as follows; 50 °C for 2 min and 95 °C for 2 s; followed by 40 cycles of denaturation at 95 °C for 1 s; annealing and elongation at 60 °C for 20 s in the ABI7900HT RT-PCR system (Applied Biosystems, USA). The relative quantification in gene expression was determined using the 2−ΔΔCt method.

[1] = design: method as in PMID 30044619; settings: in vitro and in vivo; cited from earlier work
[2] = design: method as in PMID 30302786; settings: Phase I clinical trial, 18 mg/individual; cited from earlier work
cynomolgus monkeys = settings: cynomolgus monkey, in vivo; cited from earlier work
TK6 cells = settings: positive control 6 µg/mL (21 µM), 3 h + S9 mix
Protocol: These articles have been recommended for use in the OECD test guideline (Test No. 487)[49]. For metabolic activation, pre-cultured TK6 cells with the culture medium were supplemented with Sprague–Dawley rat liver mix (S9 mix, IEDA TRADING CORPORATION, Japan) at 3.33 vol%. Then, compound was mixed with the cell suspension and treated under the following treatment conditions: • Short-term treatment for 3 h without S9 mix, followed by a 21-h culture (−S9 mix assay), • Short-term treatment for 3 h with S9 mix, followed by a 21-h culture (+S9 mix assay), or • Continuous treatment for 24 h without S9 mix (24-h assay). For treatment conditions 1 and 2, the cells in each well were centrifuged after the 3-h treatment, the supernatants were discarded, and the cells were washed twice with culture medium. The cells were further cultured with fresh culture medium for 21 h. The compound-treated cells were examined by the unaided eye for precipitation of compound at the start and end of treatment. After treatment, the rest of each cell suspension was centrifuged and then the cells were suspended in a 0.075 mol/L KCl solution at room temperature for 10 min. Then, 25 vol% acetic acid containing methanol was added and the centrifuged cells were fixed. The fixed cells were resuspended in a small amount of 3 vol% acetic acid containing methanol, which was changed two times by centrifugation. Finally, a drop of the cell suspension was transferred onto a slide and dried at room temperature. The slides were stained at room temperature in a 3 vol% Giemsa solution (Merck KGaA) diluted with Sörensen phosphate buffer (1/15 mol/L, pH 6.8, Muto Pure Chemicals Co. Ltd.). Four slides per dose (2 slides per well) were prepared. Each slide was coded randomly. The test was conducted at the following doses of TEC-1. -S9 mix assay: 1.5, 1.7, 1.9, 2.1, 2.3, 2.5, 2.7, 2.9, and 3.1 µg/mL, + S9 mix assay: 1.9, 2.1, 2.3, 2.5, 2.7, 2.9, 3.1, 3.3, and 3.5 µg/mL, 24-h assay: 0.9, 1.1, 1.3, 1.5, 1.7, 1.9, 2.1, 2.3, and 2.5 µg/mL. To perform scoring for compound and negative control groups, the number of cells in the suspensions was counted using a Coulter Counter (Z2; Beckman Coulter, Inc.). The positive control groups were not determined. A portion (0.5 mL) of the cell suspension was diluted with 20 mL of Isoton II, and 0.5 mL of this solution was used for cell counts. The cell number per 1 mL at each culture was calculated by the following formula. Cellnumber/mL=Dilutionfactor×valueof1stcount+valueof2ndcount/2×2
The population doubling (PD) and relative population doubling (RPD) at each concentration was calculated by the following formula. PD=log10cell number at the end of culture/cell number at the start of treatment∗/log102∗:1×10^5cells/mL.
RPD%=PD of the compound-treated group/PD of the negative control group×100 For the treated groups, the 3 consecutive concentrations were selected as follows. […] For all concentrations, 4000 mononuclear cells with cytoplasm were analyzed and the number of cells with micronucleus (micronuclei) was counted using a microscope (× 600). Micronucleus is identified as a round or oval small nucleus in the cytoplasm with the same staining intensity as the main nucleus. The diameter of each micronucleus should be less than 1/2 of the diameter of the main nucleus. Two investigators observed the slides. Each investigator scored 1000 cells for the frequency of micronucleated cells. Data from the two investigators were combined for each culture and the combined data from duplicate cultures were pooled for each concentration for each treatment condition. A cell having one or more micronuclei was recorded as a micronucleated cell.

## Cc1cn2nc(-c3cc(=O)n4cc(N5CCNC6(CC6)C5)ccc4n3)cc(C)c2n1 [Risdiplam]
FL-SMN2 mRNA
  EC1.5× FL-SMN2: 15.8 (8.81–32.8) nM
FOXM1b; EC50 of FOXM1b divided by EC1.5× of FL-SMN2
  Selectivity FOXM1b /FL-SMN2: 8
FOXM1b; Homo sapiens, Fibroblast, GM03813 fibroblasts, 24 h, 50% total target mRNA reduction, 95% CI in brackets
  EC50: 124 nM
FOXM1ΔC
  EC4.0× FOXM1ΔC: 38.9 (6.98–85.0) nM
FOXM1a
  EC3.0× FOXM1a: 24.2 (4.49–78.5) nM
FOXM1
  FOXM1 splicing in cynomolgus monkey cells: FOXM1 mis-splicing was similarly observed
[1]
  micronucleus induction: induces micronucleation in vitro and in vivo
[2]
  exposure cap, AUC0–24h in plasma: 1500 ng·h/mL
Cynomolgus monkeys
  findings in 39-week toxicological study: pathological intestinal and pancreatic changes, and irreversible retinal degeneration

## O=P1(N(CCCl)CCCl)NCCCO1 (stereo not shown) [CP, cyclophosphamide, reference compound]
TK6 cells
  Micronucleated cells Well 1: 39
  Micronucleated cells Well 2: 46
TK6 cells; counted in 4000 cells
  Micronucleated cells Total: 85
TK6 cells; p < 0.01
  Micronucleated cells (%): (2.13) ** %
